Laboratory results reported in patent US20070232577A1, “Synthetic pentacyclic triterpenoids and derivatives of betulinic acid and betulin” (Advanced Life Sciences, Inc., priority 2006, published 2007).
≈ marks a conversion by molar mass, not a printed value.

Experiments:
A-375 (melanoma) = assay: MTS cell viability assay, A-375; format: cell-based; conditions: Homo sapiens, 72 h
Experimental: (§1) All treatments were performed in triplicate. […] Cells were incubated at 37° C. for 72 h.

LN-229 (glioblastoma) = assay: MTS cell viability assay, LN-229; format: cell-based; conditions: Homo sapiens, 72 h
Experimental: as §1

[1] = tested on: OVCAR-3 (ovarian carcinoma); assay: MTS cell viability assay, OVCAR-3; format: cell-based; conditions: Homo sapiens, 72 h
Experimental: as §1

HT-29 (colon carcinoma) = assay: MTS cell viability assay, HT-29; format: cell-based; conditions: Homo sapiens, 72 h
Experimental: as §1

MCF-7 (breast carcinoma) = assay: MTS cell viability assay, MCF-7; format: cell-based; conditions: Homo sapiens, MCF7, 72 h
Experimental: as §1

Daoy (glioblastoma) = assay: MTS cell viability assay, Daoy; conditions: for IC50: Homo sapiens, Daoy, 72 h, read-out: IC50 Daoy
Experimental: (§2) Cells were plated, the evening before treatment, for each treatment on 96-well plates (1×10^4 cells/well) in 100 μL volume per well. Drug solutions were prepared by diluting each test compound in DSMO (10 mM) with the appropriate cell growth media for each individual cell line, or in “Universal Media” if several cell lines were to be assayed in parallel, immediately prior to cell treatment. Universal Media consisted of 5 mL sodium pyruvate (100×liquid stock, CellGro), 5 mL glucose (100×, 45% liquid stock, CellGro), 5 mL Penicillin/Streptomycin (100×liquid stock, CellGro), 10 mL sodium bicarbonate (50×liquid stock, CellGro), 25 mL Fetal Calf Serum, 1.25 mL insulin (4 mg/mL, Gibco) and 449 mL RPMI media with 2 mM glutamine for a total volume of 500 mL. Cells were treated by aspirating media from each well and adding 80 μL of each drug solution to the attached cells. All treatments were performed in triplicate. Growth media (80 μL) were added to 3 blank wells (no cells) to measure background from the growth media Growth media alone (no DMSO or test compond) was added to 2 wells containing cells to measure the baseline MTS activity and vehicle (DMSO) control solutions were also included to monitor basal toxicity from DMSO. Cells were incubated at 37° C. for 72 h. MTS reagent (per 96-well plate) were prepared by combining 2 mL of MTS working solution (Cell Titer AQueous Non-Radioactive Cell Proliferation Assay, Promega, cat#G1112), 100 μL of 0.92 mg/mL phenazine methosulfate/Dulbecco's PBS and 2.1 mL growth media. MTS reagent (40 μL) were added to each well and incubated at 37° C. for 1.5 to 4 h. Plates were gently shaken by hand until solution in each well appeared homogenous. Absorbances at 490 nm were measured on a plate reader at multiple time points following the addition of MTS reagent for each plate. Triplicate absorbance (490 nm) measurements were averaged following background (no cell) subtraction for each drug concentration. Percent Cell Viability was calculated for each drug concentration using the following equation: {[Absorbances(drug treated)]/[Absorbances(DMSO treated)]}×100%
(§3) Percent viability (y-axis) was plotted against drug concentration (x-axis) and the resulting graph was used to determine the 50% inhibitory concentration (IC50) for each drug.

SK-MEL-2 (melanoma) = assay: MTS cell viability assay, SK-MEL-2; conditions: Homo sapiens, SK-MEL-2, 72 h, read-out: IC50 SK-MEL-2
Experimental: as §2, §3

SK-MEL-2 cells = assay: Caspase activation assay, SK-MEL-2; format: cell-based; conditions: SK-MEL-2
Experimental: All treatments were performed in duplicate. […] Cells were incubated at 37° C. for 8 h. Caspase assay reagent (per 96-well plate) was prepared according to manufacturer's instructions (Homogeneous Caspases Assay, fluorometric, Roche) by combining 6.3 mL Incubation Buffer with 0.7 mL of Substrate Stock Solution. Caspase assay reagent (70 μL) was added to each well; the plate was gently shaken by hand for 15-20 seconds and incubated at 37° C. for 4 h.
Fluorescent emission was measured at 535 nm on a plate reader using the “homogeneous caspase” program (excitation Wavelength=490 nm, emission wavelength=535 nm). Duplicate wells for each treatment were averaged following background (no cells) subtraction (emission 535 nm value from all experimental emission 535 nm values) for each drug concentration.
DMSO treatment represented baseline caspase activation in the absence of drug. The percent changes in caspase activity were plotted on the y-axis for each drug treatment.
Caspase activation assays were conducted to further characterize the mode of cell death. A treatment time and dose at which maximum caspase activation was observed prior to massive cell destruction would be indicative of apoptosis induction. SK-MEL-2 cells were treated with 5, 15, and 50 μM of the compound for 2, 4, 6, 8, 16, and 24 h in the absence of FBS (Fetal Bovine Serum).

Row | Structure (SMILES) | IC50 (A-375 (melanoma)) [µg/mL] | IC50 (LN-229 (glioblastoma)) [µg/mL] | IC50 [1] [µg/mL] | IC50 (HT-29 (colon carcinoma)) [µg/mL] | IC50 (MCF-7 (breast carcinoma)) [µg/mL] | IC50 (Daoy (glioblastoma)) [µg/mL] | IC50 (SK-MEL-2 (melanoma)) [µg/mL] | caspase activation in SK-MEL-2 (in words) (SK-MEL-2 cells) | selectivity of cytotoxicity for Daoy (in words) (Daoy (glioblastoma); MTS assay, Daoy versus other cell lines)
1 | C=C(C)[C@@H]1CC[C@]2(C(=O)O)CC[C@]3(C)[C@H](CC[C@@H]4[C@@]5(C)CC[C@H](O)C(C)(C)[C@@H]5CC[C@]43C)[C@@H]12 [Compound 1, (1R,3aS,5aR,5bR,7aR,9S,11aR, 11bR,13aR,13bR)-9-hydroxy-5a,5b,8,8,11a-pentamethyl-1-(prop-1-en-2-yl)icosahydro-1H-cyclopenta[a]chrysene-3a-carboxylic acid, reference compound] | 51 (≈ 112 µM) | 61 (≈ 134 µM) | 59 ± 4.58 (≈ 129 µM) | 37 (≈ 81 µM) | 50 (≈ 109 µM) | 31.3 ± 2.28 (≈ 68.5 µM) | 33.2 ± 3.77 (≈ 72.7 µM) |  | 
2 | C=C(C)[C@@H]1CC[C@]2(COC(=O)CBr)CC[C@]3(C)[C@H](CC[C@@H]4[C@@]5(C)CCC(=O)C(C)(C)[C@@H]5CC[C@]43C)[C@@H]12 [Compound 18, ((1R,3aS,5aR,5bR,7aR,11aR,11bR,13aR,13bR)-5a,5b,8,8,11a-pentamethyl-9-oxo-1-(prop-1-en-2-yl)icosahydro-1H-cyclopenta[a]chrysen-3a-yl)methyl 2-bromoacetate] | 14 (≈ 24.9 µM) |  | 8 (≈ 14.2 µM) | 36 (≈ 64.1 µM) | 48 (≈ 85.5 µM) | < 2 | 42 (≈ 74.8 µM) |  | 
3 | C=C(C)[C@@H]1CC[C@]2(COC(=O)COC)CC[C@]3(C)[C@H](CC[C@@H]4[C@@]5(C)CC[C@H](OC(C)=O)C(C)(C)[C@@H]5CC[C@]43C)[C@@H]12 [Compound 19, ((1R,3aS,5aR,5bR,7aR,9S,11aR,11bR,13aR,13b R)-9-acetoxy-5a,5b,8,8,11a-pentamethyl-1-(prop-1-en-2-yl)icosahydro-1H-cyclopenta[a]chrysen-3a-yl)methyl 2-methoxyacetate] | 7 (≈ 12.6 µM) | > 75 | > 75 | > 75 | > 75 | 7 (≈ 12.6 µM) | 6 (≈ 10.8 µM) |  | 
4 | C=C(C)[C@@H]1CC[C@]2(CO)CC[C@]3(C)[C@H](CC[C@@H]4[C@@]5(C)CC6=C(ON(O)C6)C(C)(C)[C@@H]5CC[C@]43C)[C@@H]12 [Compound 33, (1R,3aS,5aR,5bR,7aR,12aR,12bR,14aR,14bR)-3a-(hydroxymethyl)-1-isopropenyl-5a,5b,8,8,12a-pentamethyl-1,2,3,3a,4,5,5a,5b,6,7,7a,8,11,12,12a,12b,13,14, 14a,14b-icosahydro-10H-cyclopenta[7,8]chryseno[3,2-d]isoxazol-10-ol] |  |  |  |  |  |  |  | induced caspase activation | 
5 | C=C(C)[C@@H]1CC[C@]2(COC(=O)CBr)CC[C@]3(C)[C@H](CC[C@@H]4[C@@]5(C)C=C(C#N)C(=O)C(C)(C)[C@@H]5CC[C@]43C)[C@@H]12 [Compound 39, ((1R,3aS,5aR,5bR,7aR,11aR,11bR,13aR,13bR)-10-cyano-5a,5b,8,8,11a-pentamethyl-9-oxo-1-(prop-1-en-2-yl)-2,3,3a,4,5,5a,5b,6,7,7a,8,9,11a,11b,12,13,13a,13b-octadecahydro-1H-cyclopenta[a]chrysen-3a-yl)methyl 2-bromoacetate] | 4 (≈ 6.84 µM) | 7 (≈ 12 µM) | 7 (≈ 12 µM) | 6 (≈ 10.3 µM) | 13 (≈ 22.2 µM) | < 2 | 20 (≈ 34.2 µM) | induced caspase activation | 
6 | C=C(C)[C@@H]1CC[C@]2(COC(=O)COCC)CC[C@]3(C)[C@H](CC[C@@H]4[C@@]5(C)C=C(C#N)C(=O)C(C)(C)[C@@H]5CC[C@]43C)[C@@H]12 [Compound 40, ((1R,3aS,5aR,5bR,7aR,11aR,11bR,13aR,13bR)-10-cyano-5a,5b,8,8,11a-pentamethyl-9-oxo-1-(prop-1-en-2-yl)-2,3,3a,4,5,5a,5b,6,7,7a,8,9,11a,11b,12,13,13a,13b-octadecahydro-1H-cyclopenta[a]chrysen-3a-yl)methyl 2-ethoxyacetate] | 6 (≈ 10.9 µM) | 28 (≈ 50.9 µM) | 10 (≈ 18.2 µM) | 10 (≈ 18.2 µM) | 30 (≈ 54.6 µM) | 4 (≈ 7.28 µM) | > 10 |  | 
7 | CC(C)[C@@H]1CC[C@]2(CO)CC[C@]3(C)[C@H](CC[C@@H]4[C@@]5(C)Cc6cnoc6C(C)(C)[C@@H]5CC[C@]43C)[C@@H]12 [Compound 49, [(1S,3aS,5aR,5bR,7aR,12aR,12bR,14aR,14bR)-1-isopropyl-5a,5b,8,8,12a-pentamethyl-1,2,3,4,5,5a,5b,6,7,7a,8,12,12a,12b,13,14,14a, 14b-octadecahydro-3aH-cyclopenta[7,8]chryseno[3,2-d]isoxazol-3a-yl]methanol] | 10 (≈ 21.4 µM) | > 75 | 50 to 75 (≈ 107 to 160 µM) | 50 to 75 (≈ 107 to 160 µM) | > 75 | 4 (≈ 8.55 µM) | 6 (≈ 12.8 µM) |  | 
8 | CC(C)[C@@H]1CC[C@]2(COC(=O)CBr)CC[C@]3(C)[C@H](CC[C@@H]4[C@@]5(C)Cc6cnoc6C(C)(C)[C@@H]5CC[C@]43C)[C@@H]12 [Compound 50, [(1S,3aS,5aR,5bR,7aR,12aR,12bR,14aR,14bR)-1-isopropyl-5a,5b,8,8,12a-pentamethyl-1,2,3,4,5,5a,5b,6,7,7a,8,12,12a,12b,13,14,14a, 14b-octadecahydro-3aH-cyclopenta[7,8]chryseno[3,2-d]isoxazol-3a-yl]methyl bromoacetate] | 25 (≈ 42.5 µM) | 48 (≈ 81.5 µM) | 42 (≈ 71.3 µM) | 40 (≈ 67.9 µM) | 50 (≈ 84.9 µM) | 4 (≈ 6.79 µM) | > 75 |  | 
9 | CC(C)[C@@H]1CC[C@]2(CO)CC[C@]3(C)[C@H](CC[C@@H]4[C@@]5(C)C=C(C#N)C(=O)C(C)(C)[C@@H]5CC[C@]43C)[C@@H]12 [Compound 55, (1S,3aS,5aR,5bR,7aR,11aR,11bR,13aR,13bR)-3a-(hydroxymethyl)-1-isopropyl-5a,5b,8,8,11a-pentamethyl-9-oxo-2,3,3a,4,5,5a,5b,6,7,7a,8,9,11a,11b,12,13,13a,13b-octadecahydro-1H-cyclopenta[a]chrysene-10-carbonitrile] | 4 (≈ 8.59 µM) |  | 8 (≈ 17.2 µM) | 7 (≈ 15 µM) | > 75 |  |  |  | 
10 | C=C(C)[C@@H]1CC[C@]2(C=O)CC[C@]3(C)[C@H](CC[C@@H]4[C@@]5(C)CCC(=O)C(C)(C)[C@@H]5CC[C@]43C)[C@@H]12 [Compound 66, (1R,3aS,5aR,5bR,7aR,11aR,11bR,13aR,13bR)-5a,5b,8,8,11a-pentamethyl-9-oxo-1-(prop-1-en-2-yl)icosahydro-1H-cyclopenta[a]chrysene-3a-carbaldehyde] | 15 (≈ 34.2 µM) | 35 (≈ 79.8 µM) | 20 (≈ 45.6 µM) | 21 (≈ 47.9 µM) | 38 (≈ 86.6 µM) | 6 (≈ 13.7 µM) | 28 (≈ 63.8 µM) |  | selective toxicity towards Daoy
11 | C=C(C)[C@@H]1CC[C@]2(CNCCCl)CC[C@]3(C)[C@H](CC[C@@H]4[C@@]5(C)CC[C@H](O)C(C)(C)[C@@H]5CC[C@]43C)[C@@H]12 [Compound 70, (1R,3aS,5aR,5bR,7aR,9S,11aR,11bR,13aR,13bR)-3a-((2-chloroethylamino)methyl)-5a,5b,8,8,11a-pentamethyl-1-(prop-1-en-2-yl)icosahydro-1H-cyclopenta[a]chrysen-9-ol] | 20 (≈ 39.7 µM) |  | 10 (≈ 19.8 µM) | 19 (≈ 37.7 µM) | 54 (≈ 107 µM) | < 2 | 35 (≈ 69.4 µM) |  | 
12 | C=C(C)[C@@H]1CC[C@]2(C(=O)O)CC[C@]3(C)[C@H](CC[C@@H]4[C@@]5(C)CCC(NCCO)C(C)(C)[C@@H]5CC[C@]43C)[C@@H]12 (stereo partly drawn) [Compound 77, (1R,3aS,5aR,5bR,7aR,11aR,11bR,13aR,13bR)-9-(2-hydroxyethylamino)-5a,5b,8,8,11a-pentamethyl-1-(prop-1-en-2-yl)icosahydro-1H-cyclopenta[a]chrysene-3a-carboxylic acid] | 14 (≈ 28 µM) |  | 28 (≈ 56 µM) | 16 (≈ 32 µM) | 35 (≈ 70 µM) | < 2 | 36 (≈ 72 µM) |  | 
13 | CC(C)[C@@H]1CC[C@]2(C(=O)O)CC[C@]3(C)[C@H](CC[C@@H]4[C@@]5(C)CCC(=O)C(C)(C)[C@@H]5CC[C@]43C)[C@@H]12 [Compound 87, (1S,3aS,5aR,5bR,7aR,11aR,11bR,13aR,13bR)-1-isopropyl-5a,5b,8,8,11a-pentamethyl-9-oxoicosahydro-1H-cyclopenta[a]chrysene-3a-carboxylic acid] | 22 (≈ 48.2 µM) | 28 (≈ 61.3 µM) | 22 (≈ 48.2 µM) | 35 (≈ 76.6 µM) | 38 (≈ 83.2 µM) | 5 (≈ 10.9 µM) | 16 (≈ 35 µM) |  | 
